Test results taken from paper PMC9775433 (Cancers, 2022).
Several values for one entry are separate records, joined by “and”; a condition that tells them apart may be missing. Identical values can stand only once. Like-named read-outs stand apart in the source and are kept apart here.

Experiments:
CD3 = assay: Immunohistochemistry of tumor biopsies, CD3 (T-cell infiltration); format: in vivo, human; details: 10 paired tumor biopsies
Description: (§1) Immunohistochemistry: Immunohistochemical staining was performed on 3–5 μm thick sections of the (freeze) tumor biopsies for CD3, CD31 and Ki67 according to standard methods (see Supplementary Data S2). Morphological characteristics were assessed in hematoxylin-eosin (H&E)-stained tissue sections. Evaluation of staining was performed by four investigators using light microscopy of serial tissue sections. […] Semi-quantification of CD31 staining was scored manually by a pathologist. The number of cells positive for CD3, CD31 was expressed as an estimated proportion of the total number of cells. […]
(§2) Finally, staining was
(§3) visualized with 3,3-diamino-benzidine-tetra hydrochloride (DAB), 0.3 mg/ml in 1 ml PBS
(§4) with 0.3 % H2O2. All slides were counterstained with hematoxylin.

TNIK = test system: TNIK; parameters: method as in earlier work; details: cited from earlier work
[1] = Skin drug concentration in skin biopsy at day 17 (LC-MS-MS); format: in vivo, human; details: individual patient; for concentration at 17 day: human, skin, oral, Skin - Sunitinib concentration
Description: (§5) All tissue samples were immediately snap frozen (within 1 min) in liquid nitrogen and cryopreserved at −80 °C until the day of analysis.
(§6) Tissue biopsies were weighed accurately before analysis. Tissue homogenate was prepared by using a mechanical homogenizer. The tumor tissue was homogenized with the precellys lysing kit (bertin instruments®) in the Roche MagNA lyzer®. […] Tissue homogenate samples were directly analyzed.
(§7) Supplementary data S2 – Methods (Details)
(§8) samples; using a validated liquid chromatography–tandem mass spectrometry (LC-MS-MS).
(§9) The system consisted of an Acquity H‐Class UPLC system, coupled to a Xevo TQ‐S micro
(§10) tandem mass spectrometer. […]

TEX264 = test system: TEX264; parameters: method as in earlier work; details: cited from earlier work
Q6ZSR9 = test system: Q6ZSR9; parameters: method as in earlier work; details: cited from earlier work
[2] = in vivo; cited from earlier work
Food effect cohort = format: in vivo, human; details: 700 mg Q2W, fed versus fasted
RASSF3 = test system: RASSF3; parameters: method as in earlier work; details: cited from earlier work
CD31 = assay: Immunohistochemistry of tumor biopsies, CD31 (microvessel density); format: in vivo, human; details: 10 paired tumor biopsies, day 17
Description: as §1, §2, §3, §4

FGFR-1 = test system: FGFR-1; parameters: method as in earlier work; details: cited from earlier work
[3] = cited from earlier work
CLK1 = test system: CLK1; parameters: method as in earlier work; details: cited from earlier work
AAK1 = test system: AAK1; parameters: method as in earlier work; details: cited from earlier work
refractory solid tumors [4] = assay: Phase I trial outcome (PFS, OS); format: in vivo, human; details: individual patient
Description: All patients provided written informed consent before entering the study. The study was conducted in accordance with the Declaration of Helsinki and with the principles of the International Conference on Harmonization Guidelines for Good Clinical Practice. The study protocol was approved by the local institutional board and an independent Ethics Committee.
Patients continued treatment until progression, intolerance, or withdrawal of consent. The primary outcomes of the phase I clinical trial were described previously.
Efficacy was assessed in patients who completed at least two weeks of treatment. […] Statistical significance was set at p < 0.05. All statistical analyses were performed in SPSS, version 25.

refractory solid tumors [5] = test system: refractory solid tumors; parameters: method as in PMID 30586316; details: cited from earlier work
LATS1 = test system: LATS1; parameters: method as in earlier work; details: cited from earlier work
[6] = mice; cited from earlier work
[7] = Tumor drug concentration in tumor needle biopsy at day 17 (LC-MS-MS); format: in vivo, human; details: individual patient; for concentration at 17 day: human, tumor, oral, Tumor - Sunitinib concentration
Description: as §5, §6, §7, §8, §9, §10

[8] = Plasma pharmacokinetics of high-dose intermittent sunitinib (LC-MS-MS, NONMEM); format: in vivo, human; details: human, plasma, oral, Cmax plasma - Sunitinib concentration, individual patient
Description: Study pharmacokinetic assessment in plasma: Ethylenediaminetetraacetic acid (EDTA) blood was collected pretreatment and subsequently at multiple time points in all patients (0, 2, 4, 6, 8, 10, and 24 h post-dose on day 1 for both time schedules and thereafter at days 3, 8, 10, 15, 17, and 22 for the once weekly schedule and at days 3, 15, 17, and 29 for the once every 2 weeks schedule). All samples were centrifuged within 1 h after collection at 2000 g for 10 min (at 4 degrees Celsius (°C)), plasma was separated and stored at −80 °C until the day of analysis.
Since there is no evidence for the exact relationship between plasma and tumor concentrations, we chose to use the concentration–time data calculated by NONMEM for Cmax, the average concentration over time (Caverage) and the trough concentrations just before the next dose was administered (Ctrough) based on rich PK-data of each individual patient. […] Inter-occasion variability in bioavailability and absorption duration were allowed in the model. The control stream of the final model and the goodness-of-fit plots are supplied in the Supplementary Material (Supplementary Data S3). The developed model was used to derive the individual predictions for the Cmax, Caverage, and Ctrough. SUM concentrations were calculated.
as §7, §8, §9, §10

[9] = standard daily schedule, three patients

CCN(CC)CCNC(=O)c1c(C)[nH]c(/C=C2\C(=O)Nc3ccc(F)cc32)c1C [sunitinib]
T cell infiltration (CD3 staining) after 17 days of treatment (CD3; baseline 8.6%): 12.2%
Skin - Sunitinib concentration ([1]; 300 mg O1W): 7444 µg/L and 1839 µg/L and 611 µg/L and 3502 µg/L and 629 µg/L and 305 µg/L and 1571 µg/L and 1582 µg/L and 2451 µg/L and 1993 µg/L and 5819 µg/L and 4222 µg/L and 1881 µg/L
Skin - Sunitinib concentration ([1]; 300 mg O2W): 197 µg/L and 399 µg/L
Skin - Sunitinib concentration ([1]; 700 mg O2W): 6449 µg/L and 157 µg/L and 494 µg/L and 2120 µg/L and 13415 µg/L and 375 µg/L and 1238 µg/L and 1247 µg/L and 792 µg/L and 614 µg/L and 455 µg/L and 393 µg/L and 276 µg/L and 13960 µg/L and 3537 µg/L and 896 µg/L and 2370 µg/L and 4779 µg/L and 1278 µg/L
concentration at 17 day ([1]; 400 mg, 400 mg O1W): 1500 ng/mL
concentration at 17 day ([1]; 800 mg, 800 mg O2W): 520 ng/mL
IC50 (TEX264): 990 nM
apparent volume of distribution [2]: 2230 L
effect of food on oral uptake (Food effect cohort): did not affect
IC50 (RASSF3): 800 nM
microvessel density (MVD), pre- versus on treatment biopsies (CD31): no significant differences
OS (refractory solid tumors [4]; 200 mg O1W): 119 days and 134 days
PFS (refractory solid tumors [4]; 200 mg O1W): 77 days and 82 days
OS (refractory solid tumors [4]; 300 mg O2W): 78 days and 76 days
PFS (refractory solid tumors [4]; 300 mg O2W): 58 days and 61 days
OS (refractory solid tumors [4]; 400 mg O1W): 26 days and 261 days and 817 days and 151 days and 132 days and 237 days and 169 days
PFS (refractory solid tumors [4]; 400 mg O1W): 23 days and 239 days and 68 days and 51 days and 160 days
OS (refractory solid tumors [4]; 400 mg O2W): 185 days and 23 days and 194 days
PFS (refractory solid tumors [4]; 400 mg O2W): 57 days
OS (refractory solid tumors [4]; 500 mg O2W): 257 days and 427 days
PFS (refractory solid tumors [4]; 500 mg O2W): 57 days and 176 days and 54 days
OS (refractory solid tumors [4]; 600 mg O2W): 353 days and 342 days
PFS (refractory solid tumors [4]; 600 mg O2W): 56 days and 331 days and 93 days
OS (refractory solid tumors [4]; 700 mg O2W): 86 days and 150 days and 428 days and 170 days and 91 days and 57 days and 142 days and 40 days and 526 days and 232 days and 125 days and 486 days and 400 days and 169 days and 74 days and 419 days and 148 days and 184 days and 333 days and 596 days and 93 days
PFS (refractory solid tumors [4]; 700 mg O2W): 56 days and 77 days and 245 days and 170 days and 14 days and 57 days and 26 days and 168 days and 64 days and 60 days and 45 days and 334 days and 197 days and 318 days and 84 days
OS (refractory solid tumors [4]; 800 mg O2W): 89 days and 32 days and 45 days and 243 days and 63 days and 62 days
PFS (refractory solid tumors [4]; 800 mg O2W): 56 days and 194 days and 42 days
OS range (refractory solid tumors [5]; 300 mg Q1W): 1.2–15 months
PFS range (refractory solid tumors [5]; 300 mg Q1W): 0.7–11 months
median OS (refractory solid tumors [5]; 300 mg Q1W): 3.1 months
median PFS (refractory solid tumors [5]; 300 mg Q1W): 2.2 months
OS range (refractory solid tumors [5]; 700 mg Q2W): 1.3−19.6 months
PFS range (refractory solid tumors [5]; 700 mg Q2W): 0.5–11 months
median OS (refractory solid tumors [5]; 700 mg Q2W): 4.9 months
median PFS (refractory solid tumors [5]; 700 mg Q2W): 2.6 months
OS range (refractory solid tumors [5]; all patients): 0.8–27 months
PFS range (refractory solid tumors [5]; all patients): 0.5–11 months
median overall survival (OS) (refractory solid tumors [5]; all patients): 4.9 months
median progression free survival (PFS) (refractory solid tumors [5]; all patients): 2.5 months
Tumor - Sunitinib concentration ([7]; 300 mg O1W): 2373 µg/L and 19394 µg/L and 1332 µg/L and 2343 µg/L and 1738 µg/L and 9841 µg/L and 24517 µg/L and 25618 µg/L and 2008 µg/L and 18802 µg/L and 539 µg/L and 2318 µg/L
Tumor - Sunitinib concentration ([7]; 700 mg O2W): 24802 µg/L and 2377 µg/L and 49083 µg/L and 16359 µg/L and 12244 µg/L and 8913 µg/L and 51914 µg/L and 2247 µg/L
concentration at 17 day ([7]; 400 mg, 400 mg O2W): 987 ng/mL
concentration at 17 day ([7]; 800 mg, 800 mg O2W): 228 ng/mL
Cmax ([8]; 200 mg, 200 mg O1W): 239 ng/mL
Cmax ([8]; 600 mg, 600 mg O2W): 190 ng/mL
